From patent US12686686B2 (priority 2020, dated 2026) come the findings set out here.

“Also recorded” adds a separate entry of the source. Read-outs that look alike come from different tables or passages of the source.

In one series the test system is 22RV1. Kind of series: Cytotoxic activity test (MTT) on 22RV1 prostate cancer cells. In kind it is cell-based, human. The procedure: (§1) All prostate cancer cells were cultured with a RPMI-1640 medium containing 10% calf serum, 100 units of penicillin per milliliter and 100 µg/mL of streptomycin in a constant temperature incubator containing 5% carbon dioxide at a saturated humidity of 37° C.
(§2) Cells in the logarithmic phase of growth were taken and cultured in 96-well plates for 24 hours (5×10^3 cells/well), then treated with different concentrations of the compounds to be tested, and incubated by MTT method for 4 hours. The supernatant was removed by centrifugation, the MTT crystals were dissolved by adding DMSO, and the absorbance value was measured by an enzyme-linked immunosorbent assay at a wavelength of 570 nm. The cytotoxic activity of the compounds to be tested on cancer cells was expressed as IC50.

In another series the test system is prostate cancer cells. Kind of series: Inhibitory activity on a variety of prostate cancer cells (Table 1). In kind it is cell-based, human. The following applies: structure-activity statements on Table 1. The procedure:
as §1, §2

The next series has as its system LNcap. Kind of series: Cytotoxic activity test (MTT) on LNcap prostate cancer cells. In kind it is cell-based, human. The following applies: read-out: Prostate cancer cells IC50 LNcap. The procedure:
as §1, §2

In another series the test system is RWPE-1. Kind of series: Cytotoxic activity test (MTT) on normal human prostate cell RWPE-1. In kind it is cell-based. The method, then: as §1, §2
Another series deals with C4-2B/ENZR. Kind of series: Cytotoxic activity test (MTT) on C4-2B/ENZR prostate cancer cells. In kind it is cell-based, human. The following applies: C4-2B/ENZR cells. The procedure: as §1, §2
The next series relates to Vcap-CRPC. Kind of series: Cytotoxic activity test (MTT) on Vcap-CRPC prostate cancer cells. In kind it is cell-based, human. The conditions noted are these: read-out: Prostate cancer cells IC50 Vcap-CRPC. The method, then:
as §1, §2

The test system of a further series is C4-2B. Kind of series: Cytotoxic activity test (MTT) on C4-2B prostate cancer cells. The conditions noted are these: C4-2B cells. In kind it is cell-based, human. The method, then: as §1, §2
Series [1] concerns 22Rv1 human prostate cancer cells. Kind of series: Mice model for 22RV1 prostate cancer growth, intraperitoneal injection in combination with enzalutamide. In kind it is in vivo, nod-scid male mice. An excerpt:
(§3) First, a large number of 22RV1 cells were amplified. To ensure the success rate of tumor-bearing, the cell state needs to be adjusted to the optimal state. When the number of the cells was sufficient, the cells were digested and flushed twice with PBS buffer to remove fetal bovine serum (FBS) from the medium to reduce immune rejection. The cells were adjusted to 3000*10^4/mL after counting by a hemocytometer. Then 22Rv1 human prostate cancer cells […] were subcutaneously injected into a 4-5 weeks old nod-scid male mice with severe immunodeficiency.
When the tumor grew to about 100 mm^3, the mice were randomly divided into 4 groups to make sure that the average tumor volume was the same. […] The body weight of the mice and the length and width of the tumor were measured and recorded every 3 days. The subcutaneous tumors were taken and then photographed at the end of the experiment. The tumor volumes were calculated according to the equation: volume=length×width^2×π/6, and then counted. The experimental results are shown in FIG. 3A, FIG. 3B, FIG. 3C and FIG. 3D.

Series [2] has the same test system. Kind of series: Mice model for 22RV1 prostate cancer growth, oral administration experiment. In kind it is in vivo, nod-scid male mice. The conditions noted are these: 22RV1 tumor-bearing mice.
From the text: as §3
When the tumor grew to a volume of about 100 mm^3, the mice were randomly divided into 3 groups to make sure that the average tumor volume was the same. The mice in the dosing group were orally gavaged with 0.5 mg/kg and 2 mg/kg of Compound YH-52 per day, and the mice in the control group were given the same volume of normal saline containing DMSO. The body weight of the mice and the length and width of the tumors were measured and recorded every 3 days. The subcutaneous tumors were taken and then photographed at the end of the experiment. The tumor volumes were calculated according to the equation: volume=length×width^2×π/6, and then counted. The experimental results are shown in FIG. 2A, FIG. 2B and FIG. 2C.

[3] abbreviates: 22RV1 cells, MTT, read-out: Prostate cancer cells IC50 22RV1.
Setting [4] is: normal human prostate cell RWPE-1, MTT, read-out: Normal cells RWPE-1 (IC50).

A word on the IC50: it is the concentration that gives 50% inhibition. As for `C=C(C)[C@@]12OC3(c4ccccc4)O[C@@H]1[C@@H]1[C@@H]4O[C@]4(COC(=O)CCCCCCCCCCCCCCC)[C@@H](O)[C@]4(O)C(=O)C(C)=C[C@H]4[C@@]1(O3)[C@H](C)[C@H]2OC(C)=O` [YH-5], the IC50 in the series with 22RV1 (setting [3]) came to 44500 nM; in the series on LNcap (LNcap cells, MTT), 99.3 nM; with RWPE-1 (setting [4]), 72800 nM; in the series with C4-2B/ENZR, 434 nM; with Vcap-CRPC (Vcap-CRPC cells, MTT) it was 4660 nM; with C4-2B, 904 nM. In addition, the “inhibitory activity on prostate cancer cells (in words)” value (from here on “inhibitory activity”) in the series with prostate cancer cells was “significant decrease in activity”.

For the compound `C=C(C)C12OC3(c4ccccc4)OC1C1C(O)C(O)(CO)C(O)C4(O)C(=O)C(C)=CC4C1(O3)C(C)C2OC(=O)c1ccccc1` (centres unmarked) [YH-51], the half-maximal inhibitory concentration (IC50) with 22RV1 (setting [3]) was determined as 1770 nM; with LNcap (LNcap cells, MTT), 2.51 nM; with RWPE-1 (setting [4]), 12300 nM; in the series with C4-2B/ENZR, 77.4 nM; in the series on Vcap-CRPC (Vcap-CRPC cells, MTT), 2.02 nM; with C4-2B, 7.81 nM. In addition, the “inhibitory activity” value in the series on prostate cancer cells is listed as “significantly reduced activity”.

Regarding `C=C(C)[C@@]12OC3(c4ccccc4)O[C@@H]1[C@@H]1[C@H](O)[C@](Br)(CO)[C@@H](O)[C@]4(O)C(=O)C(C)=C[C@H]4[C@@]1(O3)[C@H](C)[C@H]2OC(=O)c1ccccc1` [YH-52], the “inhibitory activity” value with prostate cancer cells is “most prominent; also recorded: enhanced activity”. Further, the IC50 with RWPE-1 (Homo sapiens, RWPE-1, read-out: Normal cells RWPE-1 (IC50)) was 53600 nM. Besides, the “toxicity for the normal human prostate cell RWPE-1” value in the series with RWPE-1 (compared with prototype compound YH-11) is given as “significantly reduced toxicity”. Also, the “effect in combination with ENZ” value in [1] (intraperitoneal injection 0.1 mg/kg in combination with ENZ (10 mg/kg)) is “significant synergistic effect”. In addition, the “efficacy compared to the positive drug enzalutamide (ENZ)” value in series [1] (intraperitoneal injection 0.1 mg/kg per day, ENZ 10 mg/kg) is “greater efficacy”. Besides, the “tumor growth in mice” value in series [2] (oral gavage 0.5 mg/kg per day) and in series [2] (oral gavage 2 mg/kg per day) was “significantly inhibit tumor growth” in each case.

With `C=C(C)[C@@]12OC3(/C=C/C=C/CCCCC)O[C@@H]1[C@@H]1[C@@H]4O[C@]4(CO)[C@@H](O)[C@]4(O)C(=O)C(C)=C[C@H]4[C@@]1(O3)[C@H](C)[C@H]2OC(=O)c1ccccc1` [YH-16], the IC50 amounted to 33.2 nM in the series on 22RV1 (Homo sapiens, 22Rv1, read-out: Prostate cancer cells IC50 22RV1); 5.43 nM with LNcap (Homo sapiens, LNCaP); 9670 nM with RWPE-1 (setting [4]); 5.7 nM in the series on Vcap-CRPC (Homo sapiens). For the same compound, the “inhibitory activity” value with prostate cancer cells was “more cytotoxic”.

Regarding `C=C(C)[C@@]12OC3(/C=C/C=C/CCCCC)O[C@@H]1[C@@H]1[C@@H]4O[C@]4(COC(=O)c4ccccc4)[C@@H](O)[C@]4(O)C(=O)C(C)=C[C@H]4[C@@]1(O3)[C@H](C)[C@H]2OC(=O)c1ccccc1` [YH-20], the “inhibitory activity” value with prostate cancer cells is reported as “significant decrease in activity”. In addition, the IC50 in the series with C4-2B/ENZR came out at 5760 nM; in the series on C4-2B, 1580 nM.
